How the values were obtained:
Assay in all cases: relative viability (nuclei count vs DMSO), 5 days (fraction); higher = more cells survive
[1] = compound: O=C(CCCCCCNC(=O)c1cnc(N(c2ccccc2)c2ccccc2)nc1)NO [Ricolinostat] + N=C(N)NC(=N)NCCc1ccccc1 [Phenformin] (partner 250 µM)
Procedure, shortened: (§1)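 Lung cancer cell lines were seeded in 1536-well plates and dosed by pin tool the next day, with either a single drug or a fixed anchor-drug dose combined with five library-drug doses (not always all listed) spaced in √10 steps. Five days later, one step fixed the cells and stained their nuclei (final 0.05% Triton X-100, 1% formaldehyde, 1 ug/ml Hoechst), and nuclei were counted on 4× images. Relative viability is the nuclei count in treated wells divided by the count in vehicle wells, and each value is the median of duplicate plates.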

[2] = compound: C1=CC=C(C(=C1)C2=CC=C(C=C2)C3=CSC4=C3C(=C(C(=O)N4)C#N)O)O + Cc1cc(Nc2cc(N3CCN(C)CC3)nc(Sc3ccc(NC(=O)C4CC4)cc3)n2)n[nH]1 [Tozasertib] (partner 0.1 µM)
Procedure, shortened: as §1

[3] = compound: C1=CC=C(C(=C1)C2=CC=C(C=C2)C3=CSC4=C3C(=C(C(=O)N4)C#N)O)O + O=C(CCCCCCC(=O)Nc1ccccc1)NO [Vorinostat] (partner 1 µM)
Procedure, shortened: as §1

TGX 221 + Linsitinib = compound: CC1=CN2C(=O)C=C(N=C2C(=C1)C(C)NC3=CC=CC=C3)N4CCOCC4 [TGX 221] + C[C@]1(O)C[C@@H](c2nc(-c3ccc4ccc(-c5ccccc5)nc4c3)c3c(N)nccn32)C1 [Linsitinib] (partner 1 µM)
Procedure, shortened: as §1

| Cell Line | relative viability ([1]; first compound 0.08 µM) | relative viability ([1]; first compound 0.253 µM) | relative viability ([1]; first compound 0.8 µM) | relative viability ([1]; first compound 2.53 µM) | relative viability ([2]; first compound 0.08 µM) | relative viability ([2]; first compound 0.253 µM) | relative viability ([2]; first compound 0.8 µM) | relative viability ([2]; first compound 2.53 µM) | relative viability ([2]; first compound 8 µM) | relative viability ([3]; first compound 0.08 µM) | relative viability ([3]; first compound 0.253 µM) | relative viability ([3]; first compound 0.8 µM) | relative viability ([3]; first compound 2.53 µM) | relative viability ([3]; first compound 8 µM) | relative viability (TGX 221 + Linsitinib; first compound 0.08 µM) | relative viability (TGX 221 + Linsitinib; first compound 0.253 µM) | relative viability (TGX 221 + Linsitinib; first compound 0.8 µM) | relative viability (TGX 221 + Linsitinib; first compound 2.53 µM) | relative viability (TGX 221 + Linsitinib; first compound 8 µM) |
| --- | --- | --- | --- | --- | --- | --- | --- | --- | --- | --- | --- | --- | --- | --- | --- | --- | --- | --- | --- |
| NCI-H1437 | 0.23 | 0.561 | 0.292 | 0.23 | 0.367 | 0.409 | 0.44 | 0.438 | 0.382 | 0.788 | 0.934 | 0.889 | 0.874 | 0.603 | 0.973 | 0.958 | 1.04 | 0.936 | 0.629 |
| EKVX | 0.201 | 0.251 | – | 0.222 | 0.519 | 0.484 | 0.349 | 0.546 | 0.336 | 0.672 | 1.01 | 0.758 | 0.653 | 0.561 | 0.756 | 0.851 | 0.727 | 0.715 | 0.637 |
| HARA | 0.411 | 0.452 | 0.427 | 0.124 | 0.117 | 0.106 | 0.49 | 0.104 | 0.101 | – | 0.792 | 0.701 | – | 0.371 | 1.05 | 0.853 | 0.883 | 0.766 | 0.754 |
| HCC-366 | 0.509 | 0.606 | 0.619 | 0.432 | 0.139 | 0.137 | 0.14 | 0.124 | 0.0974 | – | 0.35 | 0.348 | 0.309 | 0.315 | 0.673 | 0.434 | 0.598 | 0.545 | 0.291 |
| SW 1573 | 0.316 | 0.393 | 0.474 | 0.551 | 0.175 | 0.205 | 0.203 | 0.152 | 0.199 | 0.701 | 0.723 | 0.716 | 0.76 | 0.59 | 0.686 | 0.747 | 0.685 | 0.768 | 0.544 |
| SK-MES-1 | 0.597 | 0.599 | 0.678 | 0.672 | 0.842 | 1.07 | 0.942 | 1.01 | 0.923 | 1.1 | 1.17 | 0.911 | 1.06 | 0.923 | 1.05 | 1.03 | 1.03 | 0.913 | 0.573 |
| HCC-827 | 0.345 | 0.4 | 0.396 | 0.435 | 0.477 | 0.455 | 0.402 | 0.507 | 0.399 | 0.666 | 0.946 | 0.95 | 0.872 | 0.918 | 0.999 | 1.05 | 0.94 | 0.986 | 0.886 |
| EMC-BAC-2 | 0.475 | 0.481 | 0.476 | 0.396 | 0.297 | 0.303 | 0.254 | 0.327 | 0.305 | 0.463 | – | 0.331 | 0.435 | 0.362 | 0.814 | 0.72 | 0.737 | 0.743 | 0.692 |
| NCI-H2023 | – | 0.403 | 0.382 | 0.344 | 0.257 | 0.38 | 0.38 | 0.476 | 0.439 | 0.677 | 0.793 | 0.56 | 0.725 | 0.453 | 0.546 | 0.469 | 0.395 | 0.321 | 0.218 |
| NCI-H1993 | – | 0.48 | 0.508 | 0.339 | 0.592 | 0.524 | 0.534 | 0.592 | 0.571 | 0.57 | 1.02 | 0.979 | 0.845 | 0.644 | 0.806 | 0.774 | 0.701 | 0.641 | 0.735 |
| COR-L 105 | – | 0.562 | 0.458 | 0.471 | 0.386 | 0.341 | 0.358 | 0.383 | 0.379 | 0.763 | 0.807 | 0.805 | 1.01 | 0.706 | 0.986 | 0.828 | 1.02 | 0.537 | 0.554 |
| NCI-H596 | 0.836 | 0.749 | 0.7 | 0.694 | 0.888 | 0.724 | 1.09 | 0.89 | 0.655 | 0.588 | 0.574 | 0.589 | 0.48 | 0.527 | 1.13 | 0.913 | 0.972 | 0.972 | 0.985 |
| LK-2 | 0.415 | 0.547 | 0.499 | 0.449 | – | 0.152 | 0.149 | 0.198 | 0.198 | 0.22 | 0.26 | 0.28 | 0.321 | 0.255 | 0.523 | 0.548 | 0.627 | 0.625 | 0.625 |
| NCI-H650 | 0.373 | 0.454 | 0.397 | 0.281 | 0.62 | 0.821 | 0.637 | 0.837 | 0.683 | 0.412 | 0.438 | 0.422 | 0.426 | 0.309 | 0.732 | 0.885 | 0.779 | 0.772 | 0.713 |
| NCI-H520 | – | 0.732 | 0.578 | 0.498 | 0.409 | 0.417 | 0.432 | 0.367 | 0.441 | 0.655 | 0.571 | 0.69 | 0.726 | 0.604 | 0.929 | 0.767 | 0.779 | 0.679 | 0.63 |
| ABC-1 | 0.27 | 0.24 | 0.253 | 0.274 | 0.214 | 0.204 | 0.205 | 0.265 | 0.186 | 0.813 | 0.921 | 1.03 | 0.956 | 0.768 | 0.964 | 0.794 | 0.773 | 0.557 | 0.547 |
| NCI-H322M | – | 0.839 | 0.767 | 0.761 | 0.487 | 0.426 | 0.487 | 0.497 | 0.444 | 0.841 | 0.756 | 0.817 | 0.865 | 0.855 | 0.849 | 0.732 | 0.708 | 0.698 | 1.02 |
| HCC-78 | – | 0.761 | 0.596 | 0.428 | 0.465 | 0.41 | 0.611 | 0.503 | 0.375 | 0.514 | 0.678 | 0.448 | 0.523 | 0.352 | 0.464 | 0.409 | – | 0.213 | 0.215 |

Source: the supplement of paper PMC10307832
